Experimental data reported in article PMC11242993, “Evaluation of the Therapeutic Potential of Sulfonyl Urea Derivatives as Soluble Epoxide Hydrolase (sEH) Inhibitors” (Molecules, 2024).
pIC50: −log10 of the molar value.

Tests used:
human recombinant sEH = target: T1, human recombinant sEH (Homo sapiens, UniProt P34913); assay: Fluorescence-based sEH activity assay (PHOME substrate), human enzyme; assay type: biochemical; conditions: for pIC50: dose-dependent assay, read-out: Human sEH Inhibition IC50
T1 construct: purchased Cayman Chemical 10011671
T1 sequence (P34913 1-555): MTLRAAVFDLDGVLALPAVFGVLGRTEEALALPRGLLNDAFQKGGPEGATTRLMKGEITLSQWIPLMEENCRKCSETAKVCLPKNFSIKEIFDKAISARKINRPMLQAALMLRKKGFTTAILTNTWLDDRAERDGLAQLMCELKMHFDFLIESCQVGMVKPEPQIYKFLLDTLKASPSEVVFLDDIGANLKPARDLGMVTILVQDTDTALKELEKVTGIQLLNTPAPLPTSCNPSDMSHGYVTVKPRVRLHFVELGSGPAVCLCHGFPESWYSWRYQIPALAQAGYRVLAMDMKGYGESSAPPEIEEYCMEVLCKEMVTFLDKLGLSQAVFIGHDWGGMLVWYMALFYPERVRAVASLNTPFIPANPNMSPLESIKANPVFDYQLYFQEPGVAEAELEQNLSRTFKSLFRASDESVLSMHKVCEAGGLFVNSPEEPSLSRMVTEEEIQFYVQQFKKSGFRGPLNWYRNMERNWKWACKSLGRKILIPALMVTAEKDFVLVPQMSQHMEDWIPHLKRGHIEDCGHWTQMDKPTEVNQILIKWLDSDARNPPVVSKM
Procedure: A fluorescence-based sEH activity assay provided a convenient method for screening human epoxide hydrolase inhibitors. The assay utilized (3-Phenyl-oxiranyl)-acetic acid cyano-(6-methoxy-naphthalen-2-yl)-methyl ester (PHOME) as a substrate. […] The inhibitory function of the compounds on sEH activity was tested as detailed in the product manual from Cayman Chemical. Briefly, 3 mL sEH assay buffer (10×) was diluted with 27 mL HPLC-grade water. This final assay buffer, 25 mM bis-tris (pH 7.0), was used in the assay and for the dilution of the soluble epoxide hydrolase (sEH) enzyme. Amounts of 12 μL each of human and mouse recombinant sEH were thawed on ice. Prior to assaying, 588 μL cold assay buffer was added directly to the enzyme vial. An amount of 190 μL assay buffer and 5 μL solvent (40% DMSO in assay buffer) were added to the background wells. In the 100% initial activity wells, 185 μL assay buffer, 5 μL sEH, and 5 μL solvent were added. In inhibitor wells, 185 μL assay buffer, 5 μL solution of the synthesized compounds, and 5 μL of recombinant enzyme solution were added.
(§1) Average fluorescence (AF) of the background wells and 100% initial activity in the wells and of each of the inhibitors were determined. The background AF was subtracted from the 100% initial activity and inhibitor AFs. The % sEH activity is calculated as (inhbitited AF/% 100 initial activity) × 100.
(§2) Multiple concentrations of the inhibitors were tested followed by plotting of the percent activity as a function of inhibitor concentration to determine the IC50 values.

mouse recombinant sEH = target: T2, mouse recombinant sEH (Mus musculus, UniProt P34914); assay: Fluorescence-based sEH activity assay (PHOME substrate), mouse enzyme; assay type: biochemical; conditions: dose-dependent assay; read-out: Mouse sEH Inhibition IC50
T2 sequence (P34914 1-554): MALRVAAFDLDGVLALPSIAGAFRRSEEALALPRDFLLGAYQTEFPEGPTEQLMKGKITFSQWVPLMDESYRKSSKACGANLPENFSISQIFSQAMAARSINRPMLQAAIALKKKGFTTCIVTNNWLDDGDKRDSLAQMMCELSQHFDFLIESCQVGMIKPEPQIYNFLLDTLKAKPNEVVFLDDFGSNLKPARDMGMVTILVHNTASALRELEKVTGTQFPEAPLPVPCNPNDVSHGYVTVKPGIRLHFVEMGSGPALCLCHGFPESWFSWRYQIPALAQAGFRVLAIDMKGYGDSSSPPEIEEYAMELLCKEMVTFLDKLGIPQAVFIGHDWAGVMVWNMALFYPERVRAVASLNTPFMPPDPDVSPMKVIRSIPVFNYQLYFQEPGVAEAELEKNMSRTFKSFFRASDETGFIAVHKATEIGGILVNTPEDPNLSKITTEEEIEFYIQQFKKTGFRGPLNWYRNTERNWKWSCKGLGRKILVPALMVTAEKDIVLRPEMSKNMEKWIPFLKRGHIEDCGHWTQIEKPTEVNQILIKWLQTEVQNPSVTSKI
Procedure: A fluorescence-based sEH activity assay provided a convenient method for screening human epoxide hydrolase inhibitors. The assay utilized (3-Phenyl-oxiranyl)-acetic acid cyano-(6-methoxy-naphthalen-2-yl)-methyl ester (PHOME) as a substrate. […] The inhibitory function of the compounds on sEH activity was tested as detailed in the product manual from Cayman Chemical. Briefly, 3 mL sEH assay buffer (10×) was diluted with 27 mL HPLC-grade water. This final assay buffer, 25 mM bis-tris (pH 7.0), was used in the assay and for the dilution of the soluble epoxide hydrolase (sEH) enzyme. Amounts of 12 μL each of human and mouse recombinant sEH were thawed on ice. Prior to assaying, 588 μL cold assay buffer was added directly to the enzyme vial. An amount of 190 μL assay buffer and 5 μL solvent (40% DMSO in assay buffer) were added to the background wells. In the 100% initial activity wells, 185 μL assay buffer, 5 μL sEH, and 5 μL solvent were added. In inhibitor wells, 185 μL assay buffer, 5 μL solution of the synthesized compounds, and 5 μL of recombinant enzyme solution were added. To start the reaction, 5 μL of PHOME was added to each well at a final concentration of 0.25 mM. The microwell plate was shaken carefully for 10 s and covered with a plate cover.
as §1, §2

With `Cc1ccc(S(=O)(=O)NC(=O)NC23CC4CC(CC(C4)C2)C3)cc1` [Compound 4b, N-((adamantan-1-yl)carbamoyl)-4-methylbenzenesulfonamide] the “Human sEH % Inhibition” value (human recombinant sEH) was 91.78%, the pIC50 (human recombinant sEH) was 7.79 and the pIC50 (mouse recombinant sEH) was 6.07.

With `CC(C)(C)c1ccc(S(=O)(=O)NC(=O)NC23CC4CC(CC(C4)C2)C3)cc1` [Compound 4d] the “Human sEH % Inhibition” value (human recombinant sEH) was 32.7%.

In the case of `O=C(NC12CC3CC(CC(O)(C3)C1)C2)NS(=O)(=O)c1ccc(C(F)(F)F)cc1` [Compound 10b, N-((-3-hydroxyadamantan-1-yl)carbamoyl)-4-(trifluoromethyl)benzenesulfonamide], the “Human sEH % Inhibition” value (human recombinant sEH) was 21.26%.

`O=C(NC1C2CC3CC(C2)CC1C3)NS(=O)(=O)c1ccc(OC(F)(F)F)cc1` (stereo not shown) [Compound 12, N-((adamantan-2-yl)carbamoyl)-4-(trifluoromethoxy)benzenesulfonamide] was tested, and the “Human sEH % Inhibition” value (human recombinant sEH) was 34.53% and the “human sEH inhibitory activity (in words)” value (human recombinant sEH) was “none of them showed any activity”.

With `O=C(NC12CC3CC(CC(C3)C1)C2)NS(=O)(=O)c1ccc(Cl)cc1` [Compound 4k] the “Human sEH % Inhibition” value (human recombinant sEH) was 96.47%, the pIC50 (human recombinant sEH) was 8.70 and the pIC50 (mouse recombinant sEH) was under 6.00.

With `CS/C(=N\S(=O)(=O)c1ccc(OC(F)(F)F)cc1)NC12CC3CC(CC(C3)C1)C2` [Compound 7] the “Human sEH % Inhibition” value (human recombinant sEH) was 32.83%.

For `CC(C)(C)c1ccc(S(=O)(=O)NC(=O)NC23CC4CC(CC(O)(C4)C2)C3)cc1` [Compound 10c, 4-(tert-butyl)-N-((-3-hydroxyadamantan-1-yl)carbamoyl)benzenesulfonamide], the “Human sEH % Inhibition” value (human recombinant sEH) was 3.08%.

In the case of `O=C(NC12CC3CC(CC(C3)C1)C2)NS(=O)(=O)c1ccccc1OC(F)(F)F` [Compound 4h, N-((adamantan-1-yl)carbamoyl)-2-(trifluoromethoxy)benzenesulfonamide], the “Human sEH % Inhibition” value (human recombinant sEH) was 6.28% and the “human sEH inhibitory activity (in words)” value (human recombinant sEH) was “sEH inhibition decreased to a significant extent”.

In the case of `O=C(NC12CC3CC(CC(C3)C1)C2)NS(=O)(=O)c1ccc(F)cc1` [Compound 4j], the “Human sEH % Inhibition” value (human recombinant sEH) was 85.26%, the pIC50 (human recombinant sEH) was 6.92 and the pIC50 (mouse recombinant sEH) was under 6.00.

`CN/C(=N\S(=O)(=O)c1ccc(OC(F)(F)F)cc1)NC12CC3CC(CC(C3)C1)C2` [Compound 8b] was tested, and the “Human sEH % Inhibition” value (human recombinant sEH) was 13.06%.

In the case of `CC(C)(C)c1ccc(S(=O)(=O)NC(=S)NC23CC4CC(CC(C4)C2)C3)cc1` [Compound 6b, N-((adamantan-1-yl)carbamothioyl)-4-(tert-butyl)benzenesulfonamide], the “Human sEH % Inhibition” value (human recombinant sEH) was 1.80%.

In the case of `O=C(NC1CCNCC1)NS(=O)(=O)c1ccc(OC(F)(F)F)cc1` [Compound 17, N-(piperidin-4-ylcarbamoyl)-4-(trifluoromethoxy)benzenesulfonamide], the “Human sEH % Inhibition” value (human recombinant sEH) was 32.02% and the “human sEH inhibitory activity (in words)” value (human recombinant sEH) was “none of them showed any activity”.

`COc1ccc(S(=O)(=O)NC(=O)NC23CC4CC(CC(C4)C2)C3)cc1` [Compound 4e] was tested, and the “Human sEH % Inhibition” value (human recombinant sEH) was 95.39%, the pIC50 (human recombinant sEH) was 8.53 and the pIC50 (mouse recombinant sEH) was under 6.00.

`O=C(NC12CC(C1)C2)NS(=O)(=O)c1ccc(OC(F)(F)F)cc1` [Compound 11a, N-(bicyclo [1.1.1]pentan-1-ylcarbamoyl)-4-(trifluoromethoxy)benzenesulfonamide] was tested, and the “Human sEH % Inhibition” value (human recombinant sEH) was 4.28%.

In the case of `CNN/C(=N\S(=O)(=O)c1ccc(OC(F)(F)F)cc1)NC12CC3CC(CC(C3)C1)C2` [Compound 9b], the “Human sEH % Inhibition” value (human recombinant sEH) was 9.83%.

With `O=C(NC12CC3CC(CC(C3)C1)C2)NS(=O)(=O)c1ccc(C(F)(F)F)cc1` [Compound 4c, N-((adamantan-1-yl)carbamoyl)-4-(trifluoromethyl)benzenesulfonamide] the “Human sEH % Inhibition” value (human recombinant sEH) was 34.06%.

For `O=C(NS(=O)(=O)c1ccc(OC(F)(F)F)cc1)N1CCC(C(F)(F)F)CC1` [Compound 13, N-((4-(trifluoromethoxy)phenyl)sulfonyl)-4-(trifluoromethyl)piperidine-1-carboxamide], the “Human sEH % Inhibition” value (human recombinant sEH) was 2.75% and the “human sEH inhibitory activity (in words)” value (human recombinant sEH) was “none of them showed any activity”.

In the case of `O=C(NC12CC3CC(CC(C3)C1)C2)NS(=O)(=O)c1cccc(OC(F)(F)F)c1` [Compound 4g, N-((adamantan-1-yl)carbamoyl)-3-(trifluoromethoxy)benzenesulfonamide], the “Human sEH % Inhibition” value (human recombinant sEH) was 1.65% and the “human sEH inhibitory activity (in words)” value (human recombinant sEH) was “sEH inhibition decreased to a significant extent”.

In the case of `Cc1ccc(S(=O)(=O)NC(=O)NC23CC4CC(CC(O)(C4)C2)C3)cc1` [Compound 10a, N-((3-hydroxyadamantan-1-yl)carbamoyl)-4-methylbenzenesulfonamide], the “Human sEH % Inhibition” value (human recombinant sEH) was 22.47%.

With `N#CC12CC(NC(=O)NS(=O)(=O)c3ccc(OC(F)(F)F)cc3)(C1)C2` [Compound 11b, N-((3-cyanobicyclo [1.1.1]pentan-1-yl)carbamoyl)-4-(trifluoromethoxy)benzenesulfonamide] the “Human sEH % Inhibition” value (human recombinant sEH) was 7.47%.

In the case of `COc1ccc(S(=O)(=O)NC(=S)NC23CC4CC(CC(C4)C2)C3)cc1` [Compound 6c, N-((adamantan-1-yl)carbamothioyl)-4-methoxybenzenesulfonamide], the “Human sEH % Inhibition” value (human recombinant sEH) was 2.50%.

`N/C(=N\S(=O)(=O)c1ccc(OC(F)(F)F)cc1)NC12CC3CC(CC(C3)C1)C2` [Compound 8a] was tested, and the “Human sEH % Inhibition” value (human recombinant sEH) was 40.19%.

For `O=S(=O)(/N=C(\NNc1ccccc1)NC12CC3CC(CC(C3)C1)C2)c1ccc(OC(F)(F)F)cc1` [Compound 9c], the “Human sEH % Inhibition” value (human recombinant sEH) was 4.71%.

With `O=C(NC12CC(F)(C1)C2)NS(=O)(=O)c1ccc(OC(F)(F)F)cc1` [Compound 11c, N-((3-fluorobicyclo [1.1.1]pentan-1-yl)carbamoyl)-4-(trifluoromethoxy)benzenesulfonamide] the “Human sEH % Inhibition” value (human recombinant sEH) was 1.67%.

`CN(C)N/C(=N\S(=O)(=O)c1ccc(OC(F)(F)F)cc1)NC12CC3CC(CC(C3)C1)C2` [Compound 9d] was tested, and the “Human sEH % Inhibition” value (human recombinant sEH) was 7.65%.

In the case of `CC(C)(C)OC(=O)N1CCC(NC(=O)NS(=O)(=O)c2ccc(OC(F)(F)F)cc2)CC1` [Compound 16, tert-butyl 4-(3-((4-(trifluoromethoxy)phenyl)sulfonyl)ureido)piperidine-1-carboxylate], the “Human sEH % Inhibition” value (human recombinant sEH) was 23.03% and the “human sEH inhibitory activity (in words)” value (human recombinant sEH) was “none of them showed any activity”.

With `N#Cc1ccc(S(=O)(=O)NC(=O)NC23CC4CC(CC(C4)C2)C3)cc1` [Compound 4i, N-((adamantan-1-yl)carbamoyl)-4-cyanobenzenesulfonamide] the “Human sEH % Inhibition” value (human recombinant sEH) was 19.36%.

With `O=C(NC1CCCCC1)NS(=O)(=O)c1ccc(OC(F)(F)F)cc1` [Compound 14, N-(cyclohexylcarbamoyl)-4-(trifluoromethoxy)benzenesulfonamide] the “Human sEH % Inhibition” value (human recombinant sEH) was 32.26% and the “human sEH inhibitory activity (in words)” value (human recombinant sEH) was “none of them showed any activity”.
